According to patent US8603755B2, “Resistance to auxinic herbicides” (Dow AgroSciences, LLC., priority 2006, dated 2013):

Key:
Type in all cases: in vivo
[1] = test system: Arabidopsis Group 1 line R127; experiment: Root growth dose response of Group 1 line R127
Description: (§1) The dose responses of root growth of the mutant lines treated with a variety of auxins were measured to define the level and chemical spectrum of resistance in detail.
Four additional herbicidal compounds were also tested on the Group 1 line, R127.

[2] = test system: Arabidopsis mutant axr1-3; experiment: Root growth response of mutant axr1-3
Description: (§2) FIGS. 5A-5C. Comparison of the effect of DAS534 and 2,4-D on previously characterized mutants. Measurements were performed as described in FIG. 2. Typical root lengths for untreated controls were 20, 39 and 31 mm for tir1-1, axr2-1 and axr1-3 plants respectively. (FIG. 5A) Effect of DAS534 on edm1 and R051. The deletion mutant line edm1 lacks seven genes (At4g11220 through At4g11280) including SGT1b (Tor et al., Plant Cell 14: 993-1003, 2002). Effect of DAS534 (FIG. 5B) and 2,4-D (FIG. 5C) on axr1-3, axr2-1 and tir1-1 compared with R009 and R051.
The mutant axr1-3 is defective in the rubinylation mechanism required to activate SCF complexes. […] The axr1-3 mutant was also very resistant to picloram (160-fold). […] This is consistent with its general role in the activation of SCF complexes (Schwechheimer et al., Plant Cell. 14(10):2553-2563, 2002).

[3] = test system: Arabidopsis Group 1 (afb5) and Group 2 (sgt1b) mutant lines; experiment: Root growth dose response of picolinate auxin resistant mutants, complementation Groups 1 and 2
Description: FIGS. 1A-1D. […] Root lengths of Arabidopsis seedlings were measured 8 days after seeding on plates containing a range of concentrations of the test compounds and are plotted as a percentage of the root length of untreated plants in the same experiment. […] The symbols used for wild type, R009 from complementation Group 1 and R051 from complementation Group 2 are denoted in FIG. 1A.
To identify mutants resistant to picolinate auxins, EMS-mutagenized M2 seedlings were screened for resistance to DAS534, a 6-phenylpicolinate auxin (Compound 173 in WO 03/011853A1). The seedlings were grown on agarose medium containing 10 nM DAS534. […] Selection of lines for further study was based on the strength of resistance, elimination of potential siblings and the health and fertility of adult plants.
as §1

[4] = test system: Arabidopsis mutant line R090; experiment: Seedling resistance screen, line R090; settings: line R090, allelic to axr1-3
Description: (§3) To identify mutants resistant to picolinate auxins, EMS-mutagenized M2 seedlings were screened for resistance to DAS534, a 6-phenylpicolinate auxin (Compound 173 in WO 03/011853A1). The seedlings were grown on agarose medium containing 10 nM DAS534. This concentration was sufficient to produce marked auxinic effects on the seedlings including significant inhibition (60%) of root growth. From a total of 780,100 EMS M2 seedlings, 125 putative resistant mutants were identified by visual inspection. Seeds were recovered from 33 of these plants. Selection of lines for further study was based on the strength of resistance, elimination of potential siblings and the health and fertility of adult plants.
The mutants were crossed with wild-type Col-0 plants and the progeny were analyzed for resistance to DAS534. […] To determine the number of genetic loci identified in this screen, complementation tests were performed by crossing the herbicide-resistant mutants with each other and the known auxin-resistant mutant axr1-3 in a pair-wise fashion. […] Complementation Group 1 contained the mutants R009, R024, R045 and R127, and complementation Group 2 contained the mutants R051, R107 and R118. All seven selectively-resistant mutant lines were phenotypically normal when grown on agarose medium or in soil and they had normal fertility. […]

[5] = test system: wild type Col-0 Arabidopsis plants; experiment: Foliar spray application in the greenhouse, wild type; settings: 12 days after treatment
Description: (§4) FIGS. 8A-8C show a comparison of the effect of a foliar application of 200 g/ha picloram (FIG. 8A), 200 g/ha aminopyralid (FIG. 8B) or 50 g/ha 2,4-D (FIG. 8C) on wild type Col-0 and mutant R009 Arabidopsis plants. Pictures were taken 12 days after treatment of 17-day old plants.
(§5) Arabidopsis seedlings were grown for two weeks in a growth chamber (23° C.; continuous light at 120-150 μE m^−2 sec^−1), then taken to the greenhouse for three days after which plants were sprayed with herbicide using a track-sprayer to deliver the appropriate rate. Plants were then grown in the greenhouse for 12 days (22° C. under supplemented light with a 14 h: 10 h light-dark cycle) prior to photography and evaluation. […] Thus the chemical selectivity of resistance seen in seedling plate assays is maintained in adult plants with foliar exposure to the auxin herbicides.

[6] = test system: Group 1 mutant R009 Arabidopsis plants; experiment: Foliar spray application in the greenhouse, AFB5 mutant; settings: 12 days after treatment
Description: as §4, §5

[7] = test system: Arabidopsis mutant tir1-1; experiment: Root growth response of mutant tir1-1
Description: as §2

[8] = test system: Arabidopsis seedlings (wild type / EMS M2); experiment: Seedling plate assay on agarose medium, root growth and morphology
Description: FIGS. 1A-1D. Differential effects of auxins on root growth of mutants from complementation Groups 1 and 2. Root lengths of Arabidopsis seedlings were measured 8 days after seeding on plates containing a range of concentrations of the test compounds and are plotted as a percentage of the root length of untreated plants in the same experiment. Typical root lengths for untreated controls were 21, 21 and 24 mm for wild-type, Group 1, and Group 2 plants respectively. The symbols used for wild type, R009 from complementation Group 1 and R051 from complementation Group 2 are denoted in FIG. 1A.
as §3

[9] = test system: Arabidopsis deletion mutant line edm1; experiment: Root growth response of deletion mutant edm1; settings: edm1, data not shown
Description: as §2
The R051 mutation was mapped to a 100 kb interval on chromosome 4 around 36 cM between markers C4—36 and C4—37 (FIG. 3). This interval contains 17 genes including At4g11260 which encodes the tetratricopeptide-repeat containing protein, SGT1b (SEQ ID NO: 4). […] The deletion mutant line edm1 lacks seven genes (At4g11220 through At4g11280) including SGT1b (Tor et al., Plant Cell 14: 993-1003, 2002). […] It was also very cross-resistant to picloram (20-fold, data not shown) similar to the Group 2 mutants. To determine if the DAS534-resistant mutants in complementation Group 2 contained mutations in SGT1b, At4g11260 was PCR amplified from genomic DNA from all three of the mutants. […]

## O=C(O)Cc1cccc2ccccc12 [1-naphthylacetic acid]
[1]
  resistance or difference in response, in words: no resistance

## O=C(O)COc1ccc(Cl)cc1Cl [2,4-D]
[2]
  level of resistance, in words: high level of resistance
[3]; 0.045 μM 2,4-D, seven lines R009, R024, R045, R127, R051, R107, R118
  cross resistance of DAS534-resistant lines: negligible resistance
[3]; root growth dose response, both complementation groups
  resistance of the mutant lines, in words: negligible resistance
[4]
  resistance of line R090: robust resistance
[5]; 50 g/ha, wild type
  effect of foliar spray application: auxinic symptoms and growth reduction
[6]; 50 g/ha
  effect of foliar spray application: auxinic symptoms and growth reduction
[7]
  level of resistance, in words: significantly lower levels of resistance to 2,4-D than axr1

## Nc1c(F)c(-c2ccc(Cl)cc2)nc(C(=O)O)c1Cl [DAS534, 4-amino-3-chloro-5-fluoro-6-(4-chlorophenyl)pyridine-2-carboxylic acid]
[2]
  level of resistance, in words: high level of resistance
[3]; Group 1 mutant R127 and Group 2 mutant R051, 5 nM DAS534
  hypocotyl elongation and cotyledon expansion: unaffected
[8]; Arabidopsis thaliana, 10 nM DAS534 in agarose medium
  inhibition at 0.01 µM: 60%
[8]; wild-type plants, 5 nM DAS534
  visible auxinic effects on seedlings: slight agravitopism, have elongated hypocotyls and are unable to fully expand their cotyledons
[4]
  resistance of line R090: robust resistance
[7]
  level of resistance, in words: modest level of resistance

## Nc1cc(Cl)nc(C(=O)O)c1Cl [aminopyralid]
[5]; 200 g/ha, wild type Col-0
  effect of foliar spray application: profound morphological effects and severely inhibited plant growth
[6]; 200 g/ha
  effect of foliar spray application: minimal effect

## O=C(O)c1nc(Cl)ccc1Cl [clopyralid]
[1]
  fold resistance: 50 fold

## COc1c(Cl)ccc(Cl)c1C(=O)O [dicamba]
[1]
  resistance or difference in response, in words: no resistance

## O=C(O)c1ccccc1C(=O)Nc1cccc2ccccc12 [napthylphthalamic acid]
[1]
  resistance or difference in response, in words: no difference in response

## Nc1c(Cl)c(Cl)nc(C(=O)O)c1Cl [picloram]
[9]
  cross-resistance: 20 fold
[2]
  fold resistance: 160 fold
[5]; 200 g/ha, wild type Col-0
  effect of foliar spray application: profound morphological effects and severely inhibited plant growth
[6]; 200 g/ha
  effect of foliar spray application: minimal effect
[7]
  level of resistance, in words: slightly more resistant
